From ChEMBL document CHEMBL1201862, “PubChem BioAssay data set” (2004)
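Where inhibition never reached the appropriate level, the endpoint shown equals the highest concentration tested. Otherwise, values were interpolated linearly from a five-concentration, 48-hour dose response in 96-well plates. GI50: concentration for 50% inhibition of growth.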 Calls of active or inactive are those of the source. No stated cut-off is given here; in the data, active = GI50 up to about 1.1 µM and inactive = higher.

Assays:
Test in all cases: NCI anticancer screen, dose series, 48 h
COLO 205 = system: COLO 205
NCI-H460 = system: NCI-H460
RXF 393 = system: RXF 393
SK-MEL-5 = system: SK-MEL-5
K562 = system: K562
T47D = system: T47D
UACC-257 = system: UACC-257
HCC 2998 = system: HCC 2998
DLD-1 = system: DLD-1
HCT-15 = system: HCT-15
SNB-19 = system: SNB-19
786-0 = system: 786-0
OVCAR-8 = system: OVCAR-8
TK-10 = system: TK-10
A549 = system: A549
M14 = system: M14
SR = system: SR
EKVX = system: EKVX
SK-OV-3 = system: SK-OV-3
NCI-H522 = system: NCI-H522

Row | SMILES | GI50 (COLO 205) | GI50 (NCI-H460) | GI50 (RXF 393) | GI50 (SK-MEL-5) | GI50 (K562) | GI50 (T47D) | GI50 (UACC-257) | GI50 (HCC 2998) | GI50 (DLD-1) | GI50 (HCT-15) [µM] | GI50 (SNB-19) | GI50 (786-0) | GI50 (OVCAR-8) | GI50 (TK-10) | GI50 (A549) | GI50 (M14) | GI50 (SR) | GI50 (EKVX) | GI50 (SK-OV-3) | GI50 (NCI-H522)
1 | CCC(=S)N(C)O | 0.634 µM (active) | 10.1 µM (inactive) | 25.9 µM (inactive) | 8.55 µM (inactive) | 0.52 µM (active) | 46.1 µM (inactive) | 50.9 µM (inactive) | 55.6 µM (inactive) | 24.6 µM (inactive) | 17 | 63.5 µM (inactive) | 11.6 µM (inactive) | 40.3 µM (inactive) | 60.1 µM (inactive) | 20.3 µM (inactive) | 17.8 µM (inactive) | 1.02 µM (active) | 16.5 µM (inactive) | 76.9 µM (inactive) | 0.41 µM (active)
2 | O=C1/C(=C/c2ccccc2)CN(C(=O)CCN2CCCC2)C/C1=C\c1ccccc1 | 1.53 µM (inactive) | 1.77 µM (inactive) | 2.33 µM (inactive) | 1.83 µM (inactive) | 0.287 µM (active) | 1.76 µM (inactive) | 2.45 µM (inactive) | 1.77 µM (inactive) | 1.46 µM (inactive) | 1.73 | 2.51 µM (inactive) | 0.895 µM (active) | 1.53 µM (inactive) | 3.12 µM (inactive) | 3.91 µM (inactive) | 1.74 µM (inactive) | 0.219 µM (active) | 2.49 µM (inactive) | 8.26 µM (inactive) | 1.31 µM (inactive)
3 | CN(C)C(=S)/N=c1\ss/c(=N\S(=O)(=O)c2ccccc2)n1N(C)C | > 100 µM (inactive) | > 100 µM (inactive) | 9.91 µM (inactive) | > 100 µM (inactive) | 59.8 µM (inactive) |  | > 100 µM (inactive) | > 100 µM (inactive) | > 100 µM (inactive) | > 100 | > 100 µM (inactive) | 45 µM (inactive) | > 100 µM (inactive) | > 100 µM (inactive) | > 100 µM (inactive) | > 100 µM (inactive) | 41.2 µM (inactive) | > 100 µM (inactive) | > 100 µM (inactive) | 4.92 µM (inactive)
4 | COC(=O)[C@H]1C=C[C@@H](C)n2c(=O)c3cc4ccccc4cc3c(=O)n21 | > 100 µM (inactive) | > 100 µM (inactive) | > 100 µM (inactive) | > 100 µM (inactive) | > 100 µM (inactive) |  | > 100 µM (inactive) | > 100 µM (inactive) | > 100 µM (inactive) | > 100 | > 100 µM (inactive) | > 100 µM (inactive) | > 100 µM (inactive) | > 100 µM (inactive) | > 100 µM (inactive) | > 100 µM (inactive) | > 100 µM (inactive) | > 100 µM (inactive) | > 100 µM (inactive) | > 100 µM (inactive)
